# Assay results reported in PubChem BioAssay AID1963981 (Molecular Pharmacology Branch, DTP, NCI, 2024).
# System: 354836-022-R-J1-PDC multicell spheroid viability
# Assay: Anticancer human tumor 354836-022-R-J1-PDC patient-derived head and neck squamous cell carcinoma cell line growth inhibition [PI3K]
# Conditions: for IC50: curve of first compound; for viability, T/C: stronger effect = lower value
# Source text: Combinatorial screen of targeted agents with the PI3K inhibitors inavolisib, alpelisib, duvelisib, and copanlisib in multi-cell type tumor spheroids
# A high-throughput screen of multi-cell type tumor spheroids was designed to identify active combinations of targeted small molecules and PI3K pathway inhibitors. Complex spheroids include a stromal component modeled by human endothelial cells (HUVEC) and fibroblasts modeled by human mesenchymal stem cells (MSCs). The concentration ranges selected for each drug and investigational agent were based upon clinically achievable concentrations if the clinical Cmax of the agent was known.
# Compounds. The drugs and investigational agents: inavolisib (NSC800729), alpelisib (NSC765974), duvelisib (NSC772469), copanlisib (NSC816437), ipatasertib (NSC767898), afuresertib (NSC778305), talazoparib (NSC767125), sapanisertib (NSC764658), selumetinib (NSC741078), tovorafenib (DAY101, NSC766906), vemurafenib (NSC761431), ravoxertinib (NSC781343), sotorasib (NSC818433), MRTX1133 (NSC 836407), abemaciclib (NSC 768073), palbociclib (NSC758247), venetoclax (NSC 766270), SY5609 (NSC837396), enzalutamide (NSC755605), and darolutamide (NSC825331), were obtained from the National Cancer Institute (NCI) Developmental Therapeutics Program Chemical Repository. The FDA-approved anticancer drug set is available from the NCI Developmental Therapeutics Program. […] The stock solutions were prepared in dimethyl sulfoxide (DMSO, Sigma-Aldrich, St. Louis, MO, cat. D2650) at 800-fold the tested concentration and stored at -70 degrees C prior to their use. All drugs and investigational agents were tested over a range starting from a high concentration at or near the clinical Cmax and decreasing in half-log increments. If the clinical Cmax for an agent had not been determined, the highest concentration tested was 10 microM.
# Cell Culture. All cells were maintained in an incubator at 37 degrees C and 5% CO2 with 95% humidity. The PDC lines were cultured according to standard operating procedures established by the NCI PDMR (https://pdmr.cancer.gov/sops/default.htm). All PDCs were thawed and cultured in Matrigel-coated flasks prepared with a working solution of 1X Ham's F-12 nutrient mix, without supplementation (Invitrogen, Waltham, MA, cat. 11765054), 100 U/mL penicillin-streptomycin (Invitrogen, cat. 15140122), and 2.5% Matrigel (Corning Inc., Corning, NY, cat. 354248) for the first three passages. The 354836-022-R-J1-PDC, 475296-252-R-J1-PDC, and 997726-040-R-J2-PDC lines were cultured in 6A media, which includes advanced DMEM/F-12 (Thermo Fisher Scientific, cat. 12634028), 10 mM HEPES (Thermo Fisher Scientific, cat. 15630080), 1X GlutaMAX supplement (Thermo Fisher Scientific, cat. 35050061), 0.1 mg/mL primocin (InvivoGen, San Diego, CA, cat. ant-pm-2), 10% defined fetal bovine serum, heat inactivated (HyClone Laboratories Inc., Logan, UT, cat. SH30070.03HI), 50% L-WRN conditioned media (ATCC, cat. CRL-3276), 1.25 mM N-Acetyl-L-cysteine (Sigma-Aldrich, cat. A9165), 10 mM nicotinamide (Sigma-Aldrich, cat. N0636), 1X B-27 supplement (Thermo Fisher Scientific, cat. 17504044), 1X N-2 supplement (Thermo Fisher Scientific, cat. 17502048), and 10 microM Y-27632 dihydrochloride (Tocris Bioscience, Bristol, United Kingdom, cat. 1254). The 624824-186-R-J2-PDC line was cultured in 6C/Colon 1B media, which includes all 6A media components plus 50 ng/mL human EGF recombinant protein (Thermo Fisher Scientific, cat. PHG0311). […]
# [1] = second compound 0.00316 µM, first compound 0.0316 µM
# [2] = second compound 0.00316 µM, first compound 0.1 µM
# [3] = second compound 0.00316 µM, first compound 0.316 µM
# [4] = second compound 0.00316 µM, first compound 1 µM
# [5] = second compound 0.01 µM, first compound 0.0316 µM
# [6] = second compound 0.01 µM, first compound 0.1 µM
# [7] = second compound 0.01 µM, first compound 0.316 µM
# [8] = second compound 0.01 µM, first compound 1 µM
# [9] = second compound 0.0316 µM, first compound 0.0316 µM
# [10] = second compound 0.0316 µM, first compound 0.1 µM
# [11] = second compound 0.0316 µM, first compound 0.316 µM
# [12] = second compound 0.0316 µM, first compound 1 µM
# [13] = second compound 0.1 µM, first compound 0.0316 µM
# [14] = second compound 0.1 µM, first compound 0.1 µM
# [15] = second compound 0.1 µM, first compound 0.316 µM
# [16] = second compound 0.1 µM, first compound 1 µM
# [17] = second compound 0.316 µM, first compound 0.0316 µM
# [18] = second compound 0.316 µM, first compound 0.1 µM
# [19] = second compound 0.316 µM, first compound 0.316 µM
# [20] = second compound 0.316 µM, first compound 1 µM
# [21] = second compound 1 µM, first compound 0.0316 µM
# [22] = second compound 1 µM, first compound 0.1 µM
# [23] = second compound 1 µM, first compound 0.316 µM
# [24] = second compound 1 µM, first compound 1 µM
# [25] = second compound 0.00316 µM, first compound 0.00316 µM
# [26] = second compound 0.00316 µM, first compound 0.01 µM
# [27] = second compound 0.01 µM, first compound 0.00316 µM
# [28] = second compound 0.01 µM, first compound 0.01 µM
# [29] = second compound 0.0316 µM, first compound 0.00316 µM
# [30] = second compound 0.0316 µM, first compound 0.01 µM
# [31] = second compound 0.1 µM, first compound 0.00316 µM
# [32] = second compound 0.1 µM, first compound 0.01 µM
# [33] = second compound 0.316 µM, first compound 0.00316 µM
# [34] = second compound 0.316 µM, first compound 0.01 µM
# [35] = second compound 1 µM, first compound 0.00316 µM
# [36] = second compound 1 µM, first compound 0.01 µM
# 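Further: spheroids exposed to agents for seven days before the viability read.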
structure (smiles),measurement,setting,value
CNC(=O)c1ccc(N2C(=S)N(c3ccc(C#N)c(C(F)(F)F)c3)C(=O)C2(C)C)cc1F + CC(Nc1ccc2c(c1)OCCn1cc(N3C(=O)OCC3C(F)F)nc1-2)C(N)=O,IC50,second compound 0.00316 µM,> 10 µM
same,IC50,second compound 0.01 µM,> 10 µM
same,IC50,second compound 0.0316 µM,> 10 µM
same,IC50,second compound 0.1 µM,> 10 µM
same,IC50,second compound 0.316 µM,> 10 µM
same,IC50,second compound 1 µM,> 10 µM
same,"viability, T/C",[1],92.3%
same,"viability, T/C",[2],99%
same,"viability, T/C",[3],104%
same,"viability, T/C",[4],82.8%
same,"viability, T/C","second compound 0.00316 µM, first compound 3.16 µM",97.8%
same,"viability, T/C","second compound 0.00316 µM, first compound 10 µM",84.7%
same,"viability, T/C",[5],120%
same,"viability, T/C",[6],88%
same,"viability, T/C",[7],94.3%
same,"viability, T/C",[8],101%
same,"viability, T/C","second compound 0.01 µM, first compound 3.16 µM",93.5%
same,"viability, T/C","second compound 0.01 µM, first compound 10 µM",84.6%
same,"viability, T/C",[9],92%
same,"viability, T/C",[10],96.7%
same,"viability, T/C",[11],83.1%
same,"viability, T/C",[12],89.4%
same,"viability, T/C","second compound 0.0316 µM, first compound 3.16 µM",87.9%
same,"viability, T/C","second compound 0.0316 µM, first compound 10 µM",88.2%
same,"viability, T/C",[13],90.8%
same,"viability, T/C",[14],95.2%
same,"viability, T/C",[15],94.2%
same,"viability, T/C",[16],91%
same,"viability, T/C","second compound 0.1 µM, first compound 3.16 µM",88.7%
same,"viability, T/C","second compound 0.1 µM, first compound 10 µM",85.7%
same,"viability, T/C",[17],62.9%
same,"viability, T/C",[18],79.9%
same,"viability, T/C",[19],74.1%
same,"viability, T/C",[20],67.6%
same,"viability, T/C","second compound 0.316 µM, first compound 3.16 µM",77.6%
same,"viability, T/C","second compound 0.316 µM, first compound 10 µM",67.9%
same,"viability, T/C",[21],63.5%
same,"viability, T/C",[22],57.7%
same,"viability, T/C",[23],64.3%
same,"viability, T/C",[24],58.4%
same,"viability, T/C","second compound 1 µM, first compound 3.16 µM",54.3%
same,"viability, T/C","second compound 1 µM, first compound 10 µM",53.4%
Cn1ncnc1[C@H]1c2n[nH]c(=O)c3cc(F)cc(c23)N[C@@H]1c1ccc(F)cc1 + CC(Nc1ccc2c(c1)OCCn1cc(N3C(=O)OCC3C(F)F)nc1-2)C(N)=O,IC50,second compound 0.00316 µM,> 0.1 µM
same,IC50,second compound 0.01 µM,> 0.1 µM
same,IC50,second compound 0.0316 µM,> 0.1 µM
same,IC50,second compound 0.1 µM,> 0.1 µM
same,IC50,second compound 0.316 µM,> 0.1 µM
same,IC50,second compound 1 µM,> 0.1 µM
same,"viability, T/C","second compound 0.00316 µM, first compound 0.000316 µM",87.4%
same,"viability, T/C","second compound 0.00316 µM, first compound 0.001 µM",97.1%
same,"viability, T/C",[25],91.6%
same,"viability, T/C",[26],101%
same,"viability, T/C",[1],120%
same,"viability, T/C",[2],89.8%
same,"viability, T/C","second compound 0.01 µM, first compound 0.000316 µM",88.4%
same,"viability, T/C","second compound 0.01 µM, first compound 0.001 µM",83.4%
same,"viability, T/C",[27],105%
same,"viability, T/C",[28],92.6%
same,"viability, T/C",[5],88.3%
same,"viability, T/C",[6],84.3%
same,"viability, T/C","second compound 0.0316 µM, first compound 0.000316 µM",83%
same,"viability, T/C","second compound 0.0316 µM, first compound 0.001 µM",89.8%
same,"viability, T/C",[29],95%
same,"viability, T/C",[30],111%
same,"viability, T/C",[9],101%
same,"viability, T/C",[10],75.5%
same,"viability, T/C","second compound 0.1 µM, first compound 0.000316 µM",87%
same,"viability, T/C","second compound 0.1 µM, first compound 0.001 µM",104%
same,"viability, T/C",[31],89.9%
same,"viability, T/C",[32],89.1%
same,"viability, T/C",[13],97.8%
same,"viability, T/C",[14],70.3%
same,"viability, T/C","second compound 0.316 µM, first compound 0.000316 µM",69.1%
same,"viability, T/C","second compound 0.316 µM, first compound 0.001 µM",81.8%
same,"viability, T/C",[33],74.7%
same,"viability, T/C",[34],72.6%
same,"viability, T/C",[17],78.8%
same,"viability, T/C",[18],60.4%
same,"viability, T/C","second compound 1 µM, first compound 0.000316 µM",58%
same,"viability, T/C","second compound 1 µM, first compound 0.001 µM",63%
same,"viability, T/C",[35],61.8%
same,"viability, T/C",[36],56.8%
same,"viability, T/C",[21],71.9%
same,"viability, T/C",[22],53.4%
CCN1CCN(Cc2ccc(Nc3ncc(F)c(-c4cc(F)c5nc(C)n(C(C)C)c5c4)n3)nc2)CC1 + CC(Nc1ccc2c(c1)OCCn1cc(N3C(=O)OCC3C(F)F)nc1-2)C(N)=O,IC50,second compound 0.00316 µM,> 1 µM
same,IC50,second compound 0.01 µM,> 1 µM
same,IC50,second compound 0.0316 µM,> 1 µM
same,IC50,second compound 0.1 µM,0.713 µM
same,IC50,second compound 0.316 µM,0.425 µM
same,IC50,second compound 1 µM,0.162 µM
same,"viability, T/C",[25],99.9%
same,"viability, T/C",[26],99.6%
same,"viability, T/C",[1],93.1%
same,"viability, T/C",[2],105%
same,"viability, T/C",[3],104%
same,"viability, T/C",[4],67.5%
same,"viability, T/C",[27],100%
same,"viability, T/C",[28],97.8%
same,"viability, T/C",[5],116%
same,"viability, T/C",[6],85%
same,"viability, T/C",[7],89.2%
same,"viability, T/C",[8],69.6%
same,"viability, T/C",[29],95.8%
same,"viability, T/C",[30],80.7%
same,"viability, T/C",[9],84.7%
same,"viability, T/C",[10],101%
same,"viability, T/C",[11],85.7%
same,"viability, T/C",[12],57.5%
same,"viability, T/C",[31],89.2%
same,"viability, T/C",[32],82.9%
same,"viability, T/C",[13],75.6%
same,"viability, T/C",[14],94.1%
same,"viability, T/C",[15],75.9%
same,"viability, T/C",[16],39.2%
same,"viability, T/C",[33],65%
same,"viability, T/C",[34],79.3%
same,"viability, T/C",[17],67.5%
same,"viability, T/C",[18],62.1%
same,"viability, T/C",[19],61.5%
same,"viability, T/C",[20],22.9%
same,"viability, T/C",[35],64%
same,"viability, T/C",[36],54.1%
same,"viability, T/C",[21],67.6%
same,"viability, T/C",[22],47.5%
same,"viability, T/C",[23],46.4%
same,"viability, T/C",[24],14.2%
